Measured values from patent US8232278B2 (Gilead Sciences, Inc., priority 2005, dated 2012).
pEC50: −log10 of the molar value. Where two headings read alike, the source gives them in different places.

Tests used:
[1] = CC50 assay in Huh-7 HCV replicon cells (CellTiter-Glo); format: cell-based, human; conditions: human, 50% cytostatic concentration
Method: (§1) The anti-HCV activity of the pyrido[3,2-d]pyrimidine derivatives of this invention was tested in a human hepatoma Huh-7 cell line harbouring a HCV replicon. The assay comprised the following steps:
(§2) Step 1: Compound Preparation and Serial Dilution
(§3) • 1. for water soluble pyrido[3,2-d]pyrimidine derivatives, a volume of 500 μL of solution in cell media (DMEM, 10% FBS, P/S, L-Glutamine) was prepared with a concentration being twice the concentration of the starting final serial dilution concentration. […] The rest of the plate, columns 2-12, was filled with 100 μL of cell media. The plate was then placed on a Precision 2000 Workstation to start the serial dilution. Compounds were diluted three times each step from column 1 to column 10. Column 11 was used as a blank control (no compound added). • 2. for pyrido[3,2-d]pyrimidine derivatives requiring DMSO to dissolve, serial dilution is performed in 50% DMSO in a 384-well plate. A solution containing a compound at 100-fold concentration of the starting final serial dilution concentration was prepared in 50% DMSO and added to the pre-specified wells in column 1 of a polypropylene 384-well plate. The plate was then placed on a Precision 2000 Workstation to start the serial dilution. After the serial dilution, a volume of 2 μL of the solution was transferred from the 384-well plate to a 96-well cell culture plate containing 100 μL of cell media on a Biomek FX Workstation. The DMSO concentration in the final assay condition was 0.5% after cells are added to the plate and the total volume in each well is brought to 200 μL. Step 2: to each well of the serial dilution plate prepared above, 100 μL of cell media containing 6000 suspended Huh-7 HCV replicon cells was added with a Multidrop workstation. The plates were incubated for 3 days at 37° C. with 5% CO2. Step 3: Detection: • a) for the EC50 assay, the media in a 96-well cell culture plate was aspirated with a Biotek EL405 plate-washer. A volume of 200 μL of a solution containing a 1:1 mixture of cell-lysis buffer (Promega, Luciferase Cell Culture Lysis 5× Reagent, cat. #E1531) and luciferase substrate solution (Promega, Luciferase Assay, cat. #E4550) was added to each well of the plate with Multidrop.
(§4) Results in table 7 are expressed by the following data: • the 50% effective concentration (EC50), i.e. the concentration that protects 50% of the cell monolayer from virus-induced cythopathic effect, and • the 50% cytostatic concentration (CC50), i.e. the concentration that results in 50% inhibition of cell growth. Table 7 further indicates the nature of substituents being present in positions 2, 4 and 6 of the pyrido[3,2-d]pyrimidine derivatives of the invention.

HCV replicon = assay: Anti-HCV assay / replicon assay (EC50, luciferase read-out); format: cell-based, hepatitis C virus (HCV); conditions: for CC50/EC50: CC50/EC50 ratio (selectivity index); for pEC50: Hepatitis C virus
Method: as §1, §2, §3, §4

[2] = 72 h, human hepatoma Huh-7 cell line harbouring a HCV replicon, 3 days, luciferase luminescence, read-out: EC50

SMILES | CC50 at 3 days [1] [nM] | CC50/EC50 (HCV replicon) | pEC50 (HCV replicon; [2]) | pEC50 (HCV replicon; Huh-7, 72 h)
COc1ccc(-c2ccc3nc(N)nc(N4CCCC(C(=O)NCC(C)C)C4)c3n2)cc1OC (stereo not drawn) [Example 258, 2-amino-4-[(3-carboxylic acid isobutylamide)-piperidin-1-yl]-6-(3,4-dimethoxyphenyl)-pyrido[3,2-d]pyrimidine] | 4200 | 56 | 7.13 | –
CC(=O)Nc1ccc(-c2ccc3nc(N)nc(OC(C)C)c3n2)cc1 [Example 355, 2-amino-4-(isopropoxy)-6-(p-acetamidophenyl)-pyrido(3,2-d)pyrimidine] | 25100 | 120 | 6.68 | –
COc1ccc(-c2ccc3nc(N)nc(NC4CCN(C(=O)OC(C)(C)C)CC4)c3n2)cc1OC [Example 246, 2-amino-4-[(1-Boc-piperidin-4-yl)amino]-6-(3,4-dimethoxyphenyl)-pyrido[3,2-d]pyrimidine] | 1500 | 70 | 7.66 | –
COc1ccc(-c2ccc3nc(N)nc(NC4CCCN(C(=O)Nc5cccc(C)c5)C4)c3n2)cc1OC (stereo not drawn) [Example 254, 2-amino-4-[(3-methylphenylcarbamoylpiperidin-3-yl)amino)-6-(3,4-dimethoxyphenyl]-pyrido[3,2-d]pyrimidine] | 7300 | 147 | 7.30 | –
CC(C)C(=O)Nc1ccc(-c2ccc3nc(N)nc(N4CCOCC4)c3n2)cc1 [Example 501, N-[4-(2-amino-4-morpholin-4-yl-pyrido[3,2-d]pyrimidin-6-yl)-phenyl]-isobutyramide] | 7300 | 149 | 7.31 | –
Cc1cccc(NC(=O)N2CCN(c3nc(N)nc4ccc(-c5ccc6c(c5)OCO6)nc34)CC2)c1 [Example 190, 2-amino-4-[N-(3-methyl-phenyl-carbamoyl)-piperazin-1-yl]-6-(3,4-methylenedioxyphenyl)-pyrido[3,2-d]pyrimidine] | 610 | 51 | 7.92 | –
Nc1nc(OCCF)c2nc(-c3ccc(F)cc3)ccc2n1 [Example 417, 2-amino-4-(2-fluoro-ethoxy)-6-(4-fluorophenyl)pyrido[3,2-d]pyrimidine] | 25100 | 2282 | 7.96 | –
CC(=O)Nc1ccc(-c2ccc3nc(N)nc(OCC4CC4)c3n2)cc1 [Example 356, 2-amino-4-(cyclopropylmethyloxy)-6-(p-acetamidophenyl)-pyrido(3,2-d)pyrimidine] | 25100 | 87 | 6.54 | –
COc1ccc(-c2ccc3nc(N)nc(N4CCN(CC(=O)N5CCCC5)CC4)c3n2)cc1OC [Example 263, 2-amino-4-(N-pyrrolidinyl-acetamid-2-yl-piperazin-1-yl)-6-(3,4-dimethoxyphenyl)pyrido[3,2-d]pyrimidine] | 2900 | 102 | 7.55 | –
CC(=O)Nc1ccc(-c2ccc3nc(N)nc(N4CCOCC4)c3n2)cc1 [Example 500, N-[4-(2-amino-4-morpholin-4-yl-pyrido[3,2-d]pyrimidin-6-yl)-phenyl]-acetamide] | 36000 | 735 | 7.31 | –
CCOc1nc(N)nc2ccc(-c3ccccc3F)nc12 [Example 279, 2-amino-4-ethoxy-6-(o-fluorophenyl)-pyrido[3,2-d]pyrimidine] | 37500 | 54 | 6.16 | –
CCC(C)Oc1nc(N)nc2ccc(-c3ccc(F)cc3)nc12 (stereo not drawn) [Example 296, 2-amino-4-sec. butoxy-6-(p-fluorophenyl)-pyrido[3,2-d]pyrimidine] | 37500 | 67 | 6.25 | –
CCOc1nc(N)nc2ccc(-c3ccc(OC)nc3)nc12 [Example 546] | 25100 | 68 | 6.43 | –
COc1ccc(-c2ccc3nc(N)nc(N4CCN(CC(=O)NCCc5ccccc5)CC4)c3n2)cc1OC [Example 260, 2-amino-4-[4-(N-2-phenylethylacetamid-2-yl)piperazin-1-yl]-6-(3,4-dimethoxyphenyl)-pyrido[3,2-d]pyrimidine] | 2600 | 73 | 7.44 | –
CC(=O)Nc1nc(OC(C)C)c2nc(-c3ccc(F)cc3)ccc2n1 [Example 285, 2-acetamido-4-isopropoxy-6-(p-fluorophenyl)-pyrido[3,2-d]pyrimidine] | 25100 | 492 | 7.29 | –
COc1nc(N)nc2ccc(-c3ccc(F)cc3)nc12 [Example 504, 6-(4-fluoro-phenyl)-4-methoxy-pyrido[3,2-d]pyrimidin-2-ylamine] | 14300 | 434 | 7.48 | –
CC(C)COc1nc(N)nc2ccc(-c3ccc(F)cc3)nc12 [Example 293, 2-amino-4-isobutoxy-6-(p-fluorophenyl)-pyrido[3,2-d]pyrimidine] | 25100 | 68 | 6.43 | –
CCCCOc1nc(N)nc2ccc(-c3ccc(F)cc3)nc12 [Example 290, 2-amino-4-n-butoxy-6-(p-fluorophenyl)-pyrido[3,2-d]pyrimidine] | 21300 | 63 | 6.47 | –
Nc1nc(OCC(F)(F)F)c2nc(-c3ccc(F)cc3)ccc2n1 [Example 351, 2-amino-4-(trifluoroethoxy)-6-(4-fluorophenyl)-pyrido[3,2-d]pyrimidine] | 25100 | 132 | 6.72 | –
COCCNc1nc(NC(C)=O)nc2ccc(-c3ccc(F)cc3)nc12 [Example 398, 2-acetamido-4-(2-methoxy-ethylamino)-6-(4-fluorophenyl)pyrido[3,2-d]pyrimidine] | 25100 | 61 | 6.39 | –
COc1ccc(-c2ccc3nc(N)nc(NC4CCCN(C(=O)OC(C)(C)C)C4)c3n2)cc1OC (stereo not drawn) [Example 247, 2-amino-4-[(1-Boc-piperidin-3-yl)amino]-6-(3,4-dimethoxyphenyl)-pyrido[3,2-d]pyrimidine] | 5200 | 238 | 7.66 | –
Nc1ccc(-c2ccc3nc(N)nc(N4CCOCC4)c3n2)cc1 [Example 502, 6-(4-amino-phenyl)-4-morpholin-4-yl-pyrido[3,2-d]pyrimidin-2-ylamine] | 8100 | 82 | – | 7.00
COc1ccc(-c2ccc3nc(N)nc(NCCC(=O)N4CCN(C(C)=O)CC4)c3n2)cc1OC [Example 262, 2-amino-4-[3-(4-acetylpiperazin-1-yl)-propan-3-one-1-yl-amino]-6-(3,4-dimethoxyphenyl)-pyrido[3,2-d]pyrimidine] | 25100 | 261 | 7.02 | –
Nc1nc(N2CCN(C(=O)COc3ccc(F)cc3)CC2)c2nc(-c3ccc(F)cc3)ccc2n1 [Example 373, 2-amino-4-[4-(4-fluorophenoxy-acetyl)piperazin-1-yl]-6-(4-fluorophenyl)-pyrido[3,2-d]pyrimidine] | 19200 | 148 | 6.89 | –
Nc1nc(OCC2CC2)c2nc(-c3ccc(F)cc3)ccc2n1 [Example 326, 2-amino-4-(cyclopropylmethyloxy)-6-(4-fluorophenyl)pyrido[3,2-d]pyrimidine] | 25100 | 254 | 7.00 | –
